Laboratory results published in ChEMBL document CHEMBL1201862, “PubChem BioAssay data set” (2004).
Active and inactive are the calls of the source.

Tests used:
HEK293 [1] = assay: cells; assay type: functional, cell-based; conditions: Homo sapiens
HEK293 [2] = assay: NOD2 signaling inhibitors in MDP-stimulated cells, cell-based, uHTS, luminescence (AID 2001); assay type: functional; conditions: Homo sapiens
HEK293 [3] = assay: cells; assay type: functional, cell-based; conditions: Homo sapiens; remark: listed apart in the source
HEK293 [4] = assay: NOD1 signaling inhibitors, primary screen, cell-based, luminescence, uHTS (AID 1578); assay type: functional; conditions: Homo sapiens
HEK293 [5] = assay: cells; assay type: functional, cell-based; conditions: Homo sapiens; remark: listed apart in the source
[6] = biological target: Nucleotide-binding oligomerization domain-containing protein 2 (Homo sapiens, UniProt Q9HC29); assay: NOD2 signaling inhibitors, cell-based, luminescence, uHTS, HEK293 (AID 1566); assay type: functional
Chain of Nucleotide-binding oligomerization domain-containing protein 2 (Q9HC29 whole entry, the tested form may be a part): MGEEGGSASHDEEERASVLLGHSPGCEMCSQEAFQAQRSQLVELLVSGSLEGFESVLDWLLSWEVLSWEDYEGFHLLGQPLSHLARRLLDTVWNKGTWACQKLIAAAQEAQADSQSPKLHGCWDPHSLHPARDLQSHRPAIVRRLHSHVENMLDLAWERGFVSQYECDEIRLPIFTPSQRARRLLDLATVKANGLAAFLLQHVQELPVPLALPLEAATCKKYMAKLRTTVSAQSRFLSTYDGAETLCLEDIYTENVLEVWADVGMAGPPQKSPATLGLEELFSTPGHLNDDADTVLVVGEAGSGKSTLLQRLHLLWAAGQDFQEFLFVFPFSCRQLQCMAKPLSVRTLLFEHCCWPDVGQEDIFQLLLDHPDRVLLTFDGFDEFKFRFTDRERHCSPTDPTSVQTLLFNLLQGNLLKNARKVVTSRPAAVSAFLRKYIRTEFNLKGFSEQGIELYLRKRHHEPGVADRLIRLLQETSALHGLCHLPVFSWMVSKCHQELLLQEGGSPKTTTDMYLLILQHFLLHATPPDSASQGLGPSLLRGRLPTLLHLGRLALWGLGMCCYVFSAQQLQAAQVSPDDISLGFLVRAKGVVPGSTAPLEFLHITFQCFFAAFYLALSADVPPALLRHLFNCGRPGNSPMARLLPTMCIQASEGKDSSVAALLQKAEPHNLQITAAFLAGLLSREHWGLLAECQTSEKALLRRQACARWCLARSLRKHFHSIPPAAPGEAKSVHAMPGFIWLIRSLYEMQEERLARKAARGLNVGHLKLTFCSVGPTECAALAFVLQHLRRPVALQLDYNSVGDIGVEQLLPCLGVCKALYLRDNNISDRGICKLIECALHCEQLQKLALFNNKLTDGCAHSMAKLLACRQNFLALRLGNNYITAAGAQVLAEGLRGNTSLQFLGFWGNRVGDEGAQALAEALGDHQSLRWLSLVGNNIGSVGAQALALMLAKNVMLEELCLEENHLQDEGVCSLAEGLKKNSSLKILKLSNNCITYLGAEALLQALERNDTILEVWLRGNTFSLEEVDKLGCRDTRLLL

[7] = biological target: T1, Microphthalmia-associated transcription factor (Homo sapiens, UniProt O75030); assay: TRPM1 promoter luciferase signal decrease, dose response, MITF inhibitor project, cell-based, SK-MEL-5, cherry-picked, set 3 (AID 493073); assay type: functional
T1 sequence (O75030 whole entry): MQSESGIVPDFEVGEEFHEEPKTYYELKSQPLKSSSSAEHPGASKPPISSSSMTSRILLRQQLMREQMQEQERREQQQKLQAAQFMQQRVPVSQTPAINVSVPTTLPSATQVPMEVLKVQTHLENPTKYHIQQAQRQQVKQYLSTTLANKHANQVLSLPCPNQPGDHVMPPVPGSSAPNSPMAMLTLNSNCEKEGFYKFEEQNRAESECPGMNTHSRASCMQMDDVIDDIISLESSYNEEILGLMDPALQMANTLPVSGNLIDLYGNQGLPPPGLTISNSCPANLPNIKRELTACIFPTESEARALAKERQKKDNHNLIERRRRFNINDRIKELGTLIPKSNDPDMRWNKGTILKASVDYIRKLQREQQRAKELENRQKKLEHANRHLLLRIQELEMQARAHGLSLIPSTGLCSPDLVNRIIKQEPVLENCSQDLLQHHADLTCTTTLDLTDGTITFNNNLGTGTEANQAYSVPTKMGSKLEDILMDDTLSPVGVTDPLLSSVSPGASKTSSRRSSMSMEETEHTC

[8] = HepG2 cell cytotoxicity, dose response, cytotoxicity control for non-replicating M. tuberculosis project (AID 489018); assay type: functional; conditions: Mycobacterium tuberculosis
[9] = THP-1 cell cytotoxicity, dose response, cytotoxicity control for non-replicating M. tuberculosis project (AID 489025); assay type: functional
cells = assay type: functional
[10] = Vero E6 cell cytotoxicity, dose response, cytotoxicity control for non-replicating M. tuberculosis project, secondary assay (AID 492998); assay type: functional, VeroE6; conditions: Vero C1008
[11] = biological target: T2, Ubiquitin-conjugating enzyme E2 N (Homo sapiens, UniProt P61088); assay type: functional
T2 sequence (P61088 whole entry): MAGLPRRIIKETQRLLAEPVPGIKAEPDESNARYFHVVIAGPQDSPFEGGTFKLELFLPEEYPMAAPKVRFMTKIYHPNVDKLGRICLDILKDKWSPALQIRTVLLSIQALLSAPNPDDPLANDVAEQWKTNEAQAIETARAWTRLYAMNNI

[12] = biological target: T2, Ubiquitin-conjugating enzyme E2 N; assay type: functional; remark: listed apart in the source
[13] = biological target: T3, Heat shock factor protein 1 (Mus musculus, UniProt P38532); assay: inhibition of MG132-induced HSE-luciferase signal, confirmation, cell-based, NIH3T3, luminescence, dose retest (AID 2382); assay type: functional;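 further: NIH3T3 fibroblasts with HSF1-driven luciferase reporter stressed by proteasome inhibitor MG132; luminescence from HSF1-driven luciferase expression after 8 hours of MG132 stress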
T3 sequence (P38532 whole entry): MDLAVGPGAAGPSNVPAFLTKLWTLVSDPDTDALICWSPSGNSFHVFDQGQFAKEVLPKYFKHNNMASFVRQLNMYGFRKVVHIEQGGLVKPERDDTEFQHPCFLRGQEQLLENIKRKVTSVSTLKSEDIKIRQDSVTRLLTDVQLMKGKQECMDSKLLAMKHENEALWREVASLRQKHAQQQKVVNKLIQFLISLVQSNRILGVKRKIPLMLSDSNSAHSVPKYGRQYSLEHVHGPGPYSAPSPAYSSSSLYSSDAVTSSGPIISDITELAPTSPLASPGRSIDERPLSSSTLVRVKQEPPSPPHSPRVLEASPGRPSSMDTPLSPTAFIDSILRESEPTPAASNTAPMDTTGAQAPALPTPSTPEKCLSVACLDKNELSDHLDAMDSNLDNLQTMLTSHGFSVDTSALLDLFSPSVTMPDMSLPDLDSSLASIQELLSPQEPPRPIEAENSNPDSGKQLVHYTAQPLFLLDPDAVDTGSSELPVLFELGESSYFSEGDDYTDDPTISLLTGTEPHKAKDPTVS

Bcl-2-related protein A1 = biological target: T4, Bcl-2-related protein A1 (Mus musculus, UniProt Q07440); assay type: functional;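 further: confirmatory dose–response counterscreen on Bfl-1, used to check hits from a UBC13 polyubiquitin inhibitor campaign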
T4 sequence (Q07440 whole entry): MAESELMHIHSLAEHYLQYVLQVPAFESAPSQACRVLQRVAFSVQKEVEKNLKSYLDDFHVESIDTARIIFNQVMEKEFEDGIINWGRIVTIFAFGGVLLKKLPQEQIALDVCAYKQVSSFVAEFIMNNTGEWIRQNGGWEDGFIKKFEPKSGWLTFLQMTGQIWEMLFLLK

[14] = biological target: T5, Calpain-2 catalytic subunit (Sus scrofa, UniProt P43367); assay: pig calpain II inhibitor potency, dose response, biochemical, fluorogenic peptide substrate (AID 1420); assay type: functional
T5 sequence (P43367 whole entry): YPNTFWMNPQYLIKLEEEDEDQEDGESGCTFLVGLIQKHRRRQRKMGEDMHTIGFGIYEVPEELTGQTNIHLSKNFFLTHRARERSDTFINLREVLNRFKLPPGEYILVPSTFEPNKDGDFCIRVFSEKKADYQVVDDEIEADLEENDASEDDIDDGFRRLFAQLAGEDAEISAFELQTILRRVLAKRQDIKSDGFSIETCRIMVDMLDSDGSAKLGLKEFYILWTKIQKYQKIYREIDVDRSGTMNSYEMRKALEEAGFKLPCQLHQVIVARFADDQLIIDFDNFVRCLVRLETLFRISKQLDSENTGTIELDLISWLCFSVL

[15] = biological target: T6, Alkaline phosphatase, tissue-nonspecific isozyme (Homo sapiens, UniProt P05186); assay: TNAP enzyme inhibition by screening hits, dose response, selectivity assay for mouse IAP inhibitor project, biochemical, human TNAP, uHTS hits (AID 488906); assay type: functional
T6 sequence (P05186 whole entry): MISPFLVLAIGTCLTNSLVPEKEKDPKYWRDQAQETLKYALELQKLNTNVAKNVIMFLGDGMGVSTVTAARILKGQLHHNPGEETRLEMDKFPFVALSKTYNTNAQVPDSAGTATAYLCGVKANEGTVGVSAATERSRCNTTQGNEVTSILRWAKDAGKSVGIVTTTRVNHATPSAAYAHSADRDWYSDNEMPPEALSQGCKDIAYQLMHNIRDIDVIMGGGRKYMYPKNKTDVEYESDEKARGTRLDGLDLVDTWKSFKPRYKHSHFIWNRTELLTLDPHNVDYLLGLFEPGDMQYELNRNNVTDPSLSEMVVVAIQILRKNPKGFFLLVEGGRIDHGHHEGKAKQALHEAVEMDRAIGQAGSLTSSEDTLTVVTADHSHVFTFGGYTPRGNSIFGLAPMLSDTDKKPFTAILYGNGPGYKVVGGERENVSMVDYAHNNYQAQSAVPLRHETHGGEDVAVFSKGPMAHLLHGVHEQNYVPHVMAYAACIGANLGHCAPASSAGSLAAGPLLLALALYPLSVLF

[16] = biological target: Intestinal-type alkaline phosphatase (Mus musculus, UniProt P24822); assay: PubChem AID 488785; assay type: functional
Chain of Intestinal-type alkaline phosphatase (Mus musculus, UniProt P24822) (P24822 whole entry): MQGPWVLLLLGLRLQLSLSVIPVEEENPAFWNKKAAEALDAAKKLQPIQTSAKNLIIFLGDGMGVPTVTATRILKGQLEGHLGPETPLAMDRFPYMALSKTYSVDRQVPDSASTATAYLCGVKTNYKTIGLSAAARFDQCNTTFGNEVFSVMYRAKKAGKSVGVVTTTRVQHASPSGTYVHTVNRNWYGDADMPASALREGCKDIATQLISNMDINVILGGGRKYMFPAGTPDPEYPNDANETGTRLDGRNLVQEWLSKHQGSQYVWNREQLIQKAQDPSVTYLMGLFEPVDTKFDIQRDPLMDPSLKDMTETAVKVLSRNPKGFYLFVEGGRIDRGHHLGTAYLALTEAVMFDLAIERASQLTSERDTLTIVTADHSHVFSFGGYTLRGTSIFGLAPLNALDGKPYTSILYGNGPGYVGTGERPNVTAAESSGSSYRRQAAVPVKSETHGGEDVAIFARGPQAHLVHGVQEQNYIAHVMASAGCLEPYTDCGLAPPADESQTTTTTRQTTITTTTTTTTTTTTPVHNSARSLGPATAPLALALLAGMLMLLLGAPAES

[17] = biological target: Intestinal-type alkaline phosphatase (Homo sapiens, UniProt P09923); assay: inhibition of human intestinal alkaline phosphatase – biochemical, dose response (AID 488876); assay type: functional
Chain of Intestinal-type alkaline phosphatase (Homo sapiens, UniProt P09923) (P09923 whole entry): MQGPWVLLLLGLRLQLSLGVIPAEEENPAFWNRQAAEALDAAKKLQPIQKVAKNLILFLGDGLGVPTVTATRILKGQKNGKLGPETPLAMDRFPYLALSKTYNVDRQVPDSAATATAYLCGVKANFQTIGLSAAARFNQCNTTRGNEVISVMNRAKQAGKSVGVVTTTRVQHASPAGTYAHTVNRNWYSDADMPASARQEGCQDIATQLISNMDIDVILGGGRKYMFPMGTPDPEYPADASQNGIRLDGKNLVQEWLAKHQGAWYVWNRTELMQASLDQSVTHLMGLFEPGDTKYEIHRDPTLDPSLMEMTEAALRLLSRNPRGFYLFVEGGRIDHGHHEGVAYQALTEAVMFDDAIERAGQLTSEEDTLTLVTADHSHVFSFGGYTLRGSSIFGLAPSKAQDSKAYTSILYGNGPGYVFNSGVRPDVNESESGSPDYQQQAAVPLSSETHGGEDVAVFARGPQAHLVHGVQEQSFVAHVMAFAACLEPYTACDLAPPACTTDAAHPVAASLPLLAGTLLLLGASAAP

In the case of O=C(CCl)Nc1ccccc1Sc1ccc(Cl)cc1, the IC50 (HEK293 [1]) was > 20 µM (inactive), the IC50 (HEK293 [2]) was 9.91 µM (active) and the IC50 (HEK293 [3]) was > 20 µM (inactive). The EC50 (HEK293 [4]) was 7.79 µM (active), the IC50 (HEK293 [5]) was 4.56 µM (active) and the EC50 [6] was 6.69 µM (active).
In the case of CN1C/C(=C/c2cccnc2)C(=O)/C(=C/c2cccnc2)C1, the AC50 [7] was 5.31 µM (active), the CC50 [8] was 8.54 µM (active) and the CC50 [9] was 6.26 µM (active). The IC50 (cells) was 16.8 µM (active) and the CC50 [10] was > 20 µM (active).
With Oc1[nH]c2ccccc2c1N=NC(S)=NCC1CCCO1 (stereo not given) the IC50 [11] was 0.967 µM (active), the IC50 [12] was 1.73 µM (active) and the EC50 [13] was > 195 µM (not active). For the same compound, the IC50 (Bcl-2-related protein A1) was > 20 µM (inactive).
In the case of O=C(CCCCCN1C(=O)c2ccccc2C1=O)Nc1ccc(S(=O)(=O)N2CCCCC2)cc1, the IC50 [11] was 1.34 µM (active), the IC50 [12] was 0.982 µM (active) and the IC50 (Bcl-2-related protein A1) was > 20 µM (inactive). For the same compound, the IC50 [14] was 2.38 µM (not active).
For CCOC(=O)c1cc(-c2ccncc2)nc2c1c(C)nn2C, the IC50 [11] was 5.32 µM (active), the IC50 [12] was 11.3 µM (active) and the IC50 (Bcl-2-related protein A1) was > 20 µM (inactive).
With NS(=O)(=O)c1ccc(NC(=S)NC(=O)/C=C/c2ccco2)cc1 the IC50 [15] was > 100 µM (inactive), the IC50 [16] was 1.87 µM (active) and the IC50 [17] was 8.09 µM (active).
